For this test, the target named is T1, human CTPS1 (Homo sapiens, UniProt P17812).
T1 construct: FLAG (with GG linker); His8 (with GG linker); purchased Proteros biostructures GmbH
T1 sequence (P17812 1-591): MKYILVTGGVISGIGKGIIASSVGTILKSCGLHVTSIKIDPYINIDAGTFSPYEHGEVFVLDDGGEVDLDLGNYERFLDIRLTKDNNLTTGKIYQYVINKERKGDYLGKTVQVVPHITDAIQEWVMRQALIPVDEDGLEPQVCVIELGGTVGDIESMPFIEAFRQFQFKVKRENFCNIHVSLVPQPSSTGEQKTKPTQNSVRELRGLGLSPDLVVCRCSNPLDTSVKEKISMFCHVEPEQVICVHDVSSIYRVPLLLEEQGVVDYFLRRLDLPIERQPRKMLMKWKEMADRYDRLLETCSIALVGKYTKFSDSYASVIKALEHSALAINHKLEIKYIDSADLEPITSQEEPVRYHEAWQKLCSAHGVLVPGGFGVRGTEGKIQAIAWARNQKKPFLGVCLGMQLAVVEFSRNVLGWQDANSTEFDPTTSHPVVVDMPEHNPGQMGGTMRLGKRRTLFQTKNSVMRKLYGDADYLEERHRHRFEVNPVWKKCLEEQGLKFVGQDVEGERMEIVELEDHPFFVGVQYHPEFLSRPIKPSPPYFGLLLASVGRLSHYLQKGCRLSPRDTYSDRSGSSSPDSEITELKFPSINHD
Nature of the test: Human CTPS1 enzyme inhibition, ADP-Glo Max assay. It counts as biochemical. As for the experimental part:
The enzyme inhibitory activities of compounds invented against the target of interest were determined using the ADP-Glo™ Max assay (Promega, UK). Assays for human CTPS1 were performed in 1× assay buffer containing 50 mM Tris, 10 mM MgCl2, 0.01% Tween-20, pH to 8.0 accordingly. Finally, immediately before use, L-cysteine was added to the 1× assay buffer to a final concentration of 2 mM. All reagents are from Sigma-Aldrich unless specified otherwise.
3× human CTPS1 protein was prepared in 1× assay buffer to the final working protein concentration required for the reaction. A 2 uL volume per well of 3× human CTPS1 protein was mixed with 2 uL per well of 3× test compound (compound prepared in 1× assay buffer to an appropriate final 3× compound concentration respective to the concentration response curve designed for the compounds under test) for 10 minutes at 25° C. […] ADP-Glo™ Max reagent was added for 60 minutes (6 μL per well) and subsequently ADP-Glo™ Max development reagent was added for 60 minutes (12 uL per well) prior to signal detection in a microplate reader (EnVision® Multilabel Reader, Perkin Elmer). Following each reagent addition over the course of the assay, assay plates were pulse centrifuged for 30 seconds at 500 rpm.
In all cases, the enzyme converts ATP to ADP and the ADP-Glo™ Max reagent subsequently depletes any remaining endogenous ATP in the reaction system. The ADP-Glo™ Max detection reagent converts the ADP that has been enzymatically produced back into ATP and using ATP as a substrate together with luciferin for the enzyme luciferase, light is generated which produces a detectable luminescence. […] The percentage inhibition produced by each concentration of compound was calculated using the equation shown below: […]

[1] abbreviates: ADP-Glo Max assay, Table 10, read-out: Human CTPS1 Enzyme Inhibition, IC50 grouped by potency range (CTPS1).

Like-named read-outs stand apart in the source and are kept apart here. Bounds are passed on as bounds.

For `CC(C)(C(=O)Nc1ccc(-c2cncc(C#N)n2)cc1)c1csc(NS(=O)(=O)C2CC2)n1` [T154, N-(4-(6-cyanopyrazin-2-yl)phenyl)-2-(2-(cyclopropanesulfonamido)thiazol-4-yl)-2-methylpropanamide], under setting [1], the IC50 fell in the range of 100 to 1000 nM.

With `Cc1cncc(-c2ccc(NC(=O)C(C)(C)c3csc(NS(=O)(=O)C4CC4)n3)cc2)c1` [T30, 2-(2-(cyclopropanesulfonamido)thiazol-4-yl)-2-methyl-N-(4-(5-methylpyridin-3-yl)phenyl)propanamide], under setting [1], the IC50 was less than 100 nM.

For `CC(C)(C(=O)Nc1ccc(-c2cccc(C(F)(F)F)c2)cn1)c1csc(NS(=O)(=O)C2CC2)n1` [T235, 2-(2-(cyclopropanesulfonamido)thiazol-4-yl)-2-methyl-N-(5-(3-(trifluoromethyl)phenyl)pyridin-2-yl)propanamide], the IC50 under setting [1] lay in the range of 100 to 1000 nM.

Turning to `CC(C)(C(=O)Nc1ccc(-c2cncc(OC(F)F)c2)cc1)c1csc(NS(=O)(=O)C2CC2)n1` [T118, 2-(2-(cyclopropanesulfonamido)thiazol-4-yl)-N-(4-(5-(difluoromethoxy)pyridin-3-yl)phenyl)-2-methylpropanamide], the IC50 under setting [1] is less than 100 nM.

`Cc1cncc(-c2ccc(NC(=O)C(C)(C)c3csc(NS(=O)(=O)C4CC4)n3)cc2)n1` [T266, 2-(2-(cyclopropanesulfonamido)thiazol-4-yl)-2-methyl-N-(4-(6-methylpyrazin-2-yl)phenyl)propanamide]: the IC50 under setting [1] was less than 100 nM.

With `CCOc1cncc(-c2ccc(NC(=O)C(C)(C)c3csc(NS(C)(=O)=O)n3)cc2)n1` [T434, N-(4-(6-ethoxypyrazin-2-yl)phenyl)-2-methyl-2-(2-(methylsulfonamido)thiazol-4-yl)propanamide], the IC50 under setting [1] is less than 100 nM.

For `COc1cncc(-c2ccc(NC(=O)C(C)(C)c3csc(NS(=O)(=O)C4CC4)n3)c(OC)c2)c1` [T50, 2-(2-(cyclopropanesulfonamido)thiazol-4-yl)-N-(2-methoxy-4-(5-methoxypyridin-3-yl)phenyl)-2-methylpropanamide], the IC50 under setting [1] was less than 100 nM.

`O=C(Cc1csc(NS(=O)(=O)C2CC2)n1)Nc1ccc(-c2ccccc2)nc1` [T66, 2-(2-(cyclopropanesulfonamido)thiazol-4-yl)-N-(6-phenylpyridin-3-yl)acetamide]: the IC50 under setting [1] was in the range of 100 to 1000 nM.

For `CC(C)(C(=O)Nc1ccc(-c2cccc(C(F)(F)F)n2)cc1)c1csc(NS(=O)(=O)C2CC2)n1` [T270, 2-(2-(cyclopropanesulfonamido)thiazol-4-yl)-2-methyl-N-(4-(6-(trifluoromethyl)pyridin-2-yl)phenyl)propanamide], under setting [1], the IC50 is 100 to 1000 nM.

On to `CC(C)(C(=O)Nc1ccc(-c2cncc(CO)c2)cc1)c1csc(NS(=O)(=O)C2CC2)n1` [T241, 2-(2-(cyclopropanesulfonamido)thiazol-4-yl)-N-(4-(5-(hydroxymethyl)pyridin-3-yl)phenyl)-2-methylpropanamide], for which the IC50 under setting [1] fell in the range of 100 to 1000 nM.

In the case of `CC(C)(C(=O)Nc1ccc(-c2cccnc2)cc1)c1csc(NS(=O)(=O)C2(C)CC2)n1` [T299, 2-methyl-2-(2-((1-methylcyclopropane)-1-sulfonamido)thiazol-4-yl)-N-(4-(pyridin-3-yl)phenyl)propanamide], the IC50 under setting [1] lay in the range of 100 to 1000 nM.

Take `COc1ncccc1-c1ccc(NC(=O)C(C)(C)c2csc(NS(=O)(=O)C3CC3)n2)cc1` [T44, 2-(2-(cyclopropanesulfonamido)thiazol-4-yl)-N-(4-(2-methoxypyridin-3-yl)phenyl)-2-methylpropanamide]: under setting [1], the IC50 was 100 to 1000 nM.

With `CC(C)(C(=O)Nc1ccc(-c2cncc(OC3CCC3)n2)cn1)c1csc(NS(=O)(=O)C2CC2)n1` [T141, N-(5-(6-cyclobutoxypyrazin-2-yl)pyridin-2-yl)-2-(2-(cyclopropanesulfonamido)thiazol-4-yl)-2-methylpropanamide], the IC50 under setting [1] lay in the range of 100 to 1000 nM.

For the compound `CN(C(=O)C(C)(C)c1csc(NS(=O)(=O)C2CC2)n1)c1ccc(-c2cncc(Cl)c2)cc1` [T318, N-(4-(5-chloropyridin-3-yl)phenyl)-2-(2-(cyclopropanesulfonamido)thiazol-4-yl)-N,2-dimethylpropanamide], under setting [1], the IC50 is 1000 to 10000 nM.

As for `CC(C)(C(=O)Nc1ccc(-c2cncc(Cl)c2)cc1F)c1csc(NS(=O)(=O)C2CC2)n1` [T128, N-(4-(5-chloropyridin-3-yl)-2-fluorophenyl)-2-(2-(cyclopropanesulfonamido)thiazol-4-yl)-2-methylpropanamide], under setting [1], the IC50 was less than 100 nM.

With `CC(C)(C(=O)Nc1ccc(-c2cncnc2)cn1)c1csc(NS(=O)(=O)C2CC2)n1` [T264, 2-(2-(cyclopropanesulfonamido)thiazol-4-yl)-2-methyl-N-(5-(pyrimidin-5-yl)pyridin-2-yl)propanamide], the IC50 under setting [1] fell in the range of 100 to 1000 nM.

In the case of `CC(C)(C(=O)Nc1ccc(-c2cnccc2C(F)(F)F)cc1)c1csc(NS(=O)(=O)C2CC2)n1` [T255, 2-(2-(cyclopropanesulfonamido)thiazol-4-yl)-2-methyl-N-(4-(4-(trifluoromethyl)pyridin-3-yl)phenyl)propanamide], the IC50 under setting [1] was 1000 to 10000 nM.

On to `CCOc1cncc(-c2ccc(NC(=O)C3(c4ccnc(NS(=O)(=O)C5CC5)n4)CCN(C(=O)COC)CC3)nc2)n1` [P288], for which the IC50 (Table 12, ADP-Glo Max assay, read-out: CTPS1 (Human CTPS1 Enzyme Inhibition data grouped by potency range)) is less than 100 nM.

For `CC(C)(C(=O)Nc1ccc(-c2cncc(OCC(F)(F)F)c2)cn1)c1csc(NS(=O)(=O)C2CC2)n1` [T114, 2-(2-(cyclopropanesulfonamido)thiazol-4-yl)-2-methyl-N-(5′-(2,2,2-trifluoroethoxy)-[3,3′-bipyridin]-6-yl)propanamide], the IC50 under setting [1] was in the range of 100 to 1000 nM.

On to `COc1ccc(-c2ccc(NC(=O)Cc3csc(NS(=O)(=O)C4CC4)n3)cc2)cn1` [T260, 2-(2-(cyclopropanesulfonamido)thiazol-4-yl)-N-(4-(6-methoxypyridin-3-yl)phenyl)acetamide], for which, under setting [1], the IC50 was 1000 to 10000 nM.

For `COc1cncc(-c2ccc(NC(=O)C(C)(C)c3csc(NS(=O)(=O)C4CC4)n3)cc2)n1` [T265, 2-(2-(cyclopropanesulfonamido)thiazol-4-yl)-N-(4-(6-methoxypyrazin-2-yl)phenyl)-2-methylpropanamide], the IC50 under setting [1] is less than 100 nM.

Regarding `CC(C)Oc1cncc(-c2ccc(NC(=O)C(C)(C)c3csc(NS(=O)(=O)C4CC4)n3)c(F)c2)c1` [T159, 2-(2-(cyclopropanesulfonamido)thiazol-4-yl)-N-(2-fluoro-4-(5-isopropoxypyridin-3-yl)phenyl)-2-methylpropanamide], the IC50 under setting [1] is less than 100 nM.

`CC(C)(C(=O)Nc1ccc(-c2cncc(C#N)c2)cc1F)c1csc(NS(=O)(=O)C2CC2)n1` [T129, N-(4-(5-cyanopyridin-3-yl)-2-fluorophenyl)-2-(2-(cyclopropanesulfonamido)thiazol-4-yl)-2-methylpropanamide]: under setting [1], the IC50 is less than 100 nM.

Turning to `O=C(Nc1ccc(-c2ccccc2)cc1)C(F)(F)c1csc(NS(=O)(=O)C2CC2)n1` [T60, N-([1,1′-biphenyl]-4-yl)-2-(2-(cyclopropanesulfonamido)thiazol-4-yl)-2,2-difluoroacetamide], the IC50 under setting [1] is 100 to 1000 nM.

For the compound `COc1cccc(-c2ccc(NC(=O)C(C)(C)c3csc(NS(=O)(=O)C4CC4)n3)cc2)n1` [T269, 2-(2-(cyclopropanesulfonamido)thiazol-4-yl)-N-(4-(6-methoxypyridin-2-yl)phenyl)-2-methylpropanamide], under setting [1], the IC50 was in the range of 100 to 1000 nM.

In the case of `CCOc1cncc(-c2ccc(NC(=O)C(C)(C)c3csc(NS(=O)(=O)C4CC4)n3)c(C)c2)n1` [T137, 2-(2-(cyclopropanesulfonamido)thiazol-4-yl)-N-(4-(6-ethoxypyrazin-2-yl)-2-methylphenyl)-2-methylpropanamide], the IC50 under setting [1] is less than 100 nM.

With `CC(C)(C(=O)Nc1ccc(-c2cncc(C(F)(F)F)c2)cc1F)c1csc(NS(=O)(=O)CC2CC2)n1` [T427, 2-(2-((cyclopropylmethyl)sulfonamido)thiazol-4-yl)-N-(2-fluoro-4-(5-(trifluoromethyl)pyridin-3-yl)phenyl)-2-methylpropanamide], under setting [1], the IC50 lay in the range of 100 to 1000 nM.

Values taken from patent US20230086703A1, “N-(4-(5-chloropyridin-3-yl)phenyl)-2-(2-(cyclopropanesulfonamido)pyrimidin-4-yl) butanamide derivatives and related compounds as human CTPS1 inhibitors for the treatment of proliferative diseases” (Step Pharma S.A.S., priority 2019, published 2023).
